Experimental data published in article PMC9999251, “Pyrazole-based lamellarin O analogues: synthesis, biological evaluation and structure–activity relationships” (RSC Advances, 2023).

How the values were obtained:
HCT116 cells = assay: Cell viability (MTT assay), HCT116; type: cell-based; settings: Homo sapiens, HCT-116, 96 h treatment, read-out: GI50 ± SD HCT116
Experimental: (§1) SW480 (human colon adenocarcinoma, adherent, epithelial, ATCC number: CCL-228), HT29 (human colon adenocarcinoma, adherent, epithelial, ATCC number: HTB-38), and HCT116 (human colon adenocarcinoma, adherent, epithelial-like, ATCC number: CCL-247) cells were maintained in RPMI-1640 medium (Sigma-Aldrich). Medium was supplemented with heat-inactivated FBS (Biowest), penicillin–streptomycin (Sigma; with 10 000 units penicillin and 10 mg streptomycin per mL in 0.9% NaCl) and L-glutamine (Sigma; 200 mM solution). Cell cultures were cultivated at 37 °C, maintaining a humidified atmosphere consisting of 5% CO2. Gibco™ trypsin–EDTA (0.05%) was used for cell passage.
(§2) To evaluate cell viability, SW480, HT29, and HCT116 cells were harvested from culture flasks by trypsinization and seeded into 96-well plates in 4000 cells per well, 3000 cells per well and 4000 cells per well densities, respectively. After 24 h preincubation period, cells were treated in triplicates with nine different doses of each compound (6a–o and 7a–c) for 96 h. After treatment compound solutions were replaced with MTT solution (MTT reagent in PBS, […]) diluted in a 6 : 1 ratio in non-supplemented RPMI-1640 medium and were additionally incubated for 2 h. After incubation, the medium was removed, and formazan product was dissolved in DMSO. Optical densities were measured at 550 nm with TECAN Infinite® M200 PRO microplate reader using a reference wavelength of 690 nm to correct unspecific absorption. The quantity of viable cells was normalized to untreated controls. The GI50 values were calculated from dose–response curves.

HT29 cells = assay: Cell viability (MTT assay), HT29; type: cell-based; settings: Homo sapiens, HT-29, 96 h treatment, read-out: GI50 ± SD HT29
Experimental: as §1, §2

SW480 cells = assay: Cell viability (MTT assay), SW480; type: cell-based; settings: Homo sapiens, SW480, 96 h, 96 h treatment, read-out: GI50 ± SD SW480
Experimental: as §1, §2

[1] = Determination of HPLC–log P; type: physicochemical; settings: reversed-phase HPLC on apHera C18 column; methanol / 0.01 M phosphate buffer pH 7.4; mean ± SD
Experimental: HPLC–log P values were determined using Shimadzu HPLC system equipped with apHera C18 column (10 × 6 mm, 5 μm, Supelco, Bellefonte, PA, USA). Each sample was dissolved in the internal standard mixture, consisting of triphenylene (99.9%, Carl Roth) and toluene (≥98%, Sigma-Aldrich). Analysis was performed at 1.5 mL min^−1 flow rate in the linear gradient where mobile phase consisted of methanol and 0.01 M phosphate buffer (pH 7.4). The HPLC–log P values were calculated from the measured retention times using previously published equation.[57]

human serum albumin = molecular target: T1, human serum albumin (Homo sapiens, UniProt P02768); assay: Plasma protein binding (PPB), HPLC on albumin-bound stationary phase; type: in vitro ADME; settings: pH 7.4, binding to human serum albumin, HPLC method
T1 construct: purchased Chiral Technologies, DAICEL Group, Europe SAS, France CHIRALPAK®HAS (50 × 3 mm, 5 μm)
Experimental: Retention times of the analytes were measured with Shimadzu HPLC system on the CHIRALPAK®HAS stationary phase (50 × 3 mm, 5 μm, Chiral Technologies, DAICEL Group, Europe SAS, France). The mobile phase A consisted of 50 mM aqueous ammonium acetate buffer (pH 7.4) and phase B of 2-propanol according to Valko et al.[65] Analysis was performed at prolonged 1 mL min^−1 flow rate in the linear gradient. Retention capacity factors (k′) were calculated by using DMSO or a substance with 0% HAS binding for systems' dead time (Rt0). The system was calibrated by injecting the reference compounds: acetylsalicylic acid (CAS 69-72-7), betamethasone (CAS 378-44-9), budesonide (CAS 5133-22-3), carbamazepine (CAS 298-46-4), cimetidine (CAS 51481-61-9), ciprofloxacin (CAS 85721-33-1), indomethacin (CAS 53-86-1), isoniazid (CAS 54-85-3), metronidazole (CAS 443-48-1), nicardipine (CAS 55985-32-5), nizatidine (CAS 76963-41-2) and warfarin (CAS 81-81-2) obtained from Sigma-Aldrich, diclofenac (CAS 15307-86-5) from EMD Chemicals Inc., flumazenil (CAS 78755-81-4) from ABX and ketoprofen (CAS 22071-15-4) from LKT Labs. The logarithmic capacity factors of the references' Rt (log(k′)) on the HSA column were plotted against the %PPB values from literature. The slope and the intercept were used to convert the log(k′) of the compounds (6a, c, f, h, m–o) to %PPB using the regression equation.[66]

T1 sequence (P02768 25-609): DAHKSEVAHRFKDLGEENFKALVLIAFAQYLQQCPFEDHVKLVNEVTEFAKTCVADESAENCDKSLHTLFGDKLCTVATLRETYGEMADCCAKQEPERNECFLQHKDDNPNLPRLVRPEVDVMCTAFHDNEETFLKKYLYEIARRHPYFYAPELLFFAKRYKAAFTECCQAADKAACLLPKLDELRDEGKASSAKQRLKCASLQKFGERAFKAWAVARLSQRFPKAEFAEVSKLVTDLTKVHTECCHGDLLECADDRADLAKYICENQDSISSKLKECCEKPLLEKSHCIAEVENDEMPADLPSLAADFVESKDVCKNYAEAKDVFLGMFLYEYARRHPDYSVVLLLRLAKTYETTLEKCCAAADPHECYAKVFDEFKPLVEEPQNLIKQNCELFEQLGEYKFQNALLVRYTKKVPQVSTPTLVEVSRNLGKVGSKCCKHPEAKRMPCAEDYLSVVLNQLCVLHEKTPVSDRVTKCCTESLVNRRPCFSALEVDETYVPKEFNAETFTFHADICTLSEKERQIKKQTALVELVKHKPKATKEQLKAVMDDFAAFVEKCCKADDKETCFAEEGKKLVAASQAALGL

| Compound | GI50 (HCT116 cells) | GI50 (HT29 cells) | GI50 (SW480 cells) | chromatographic logP [1] | melting point | fraction unbound (human serum albumin) |
| --- | --- | --- | --- | --- | --- | --- |
| COC(=O)c1c(-c2ccccc2)c(-c2ccccc2)nn1CC(=O)c1ccc(OC)cc1 [Compound 7b, Methyl 1-[2-(4-methoxyphenyl)-2-oxoethyl]-3,4-diphenyl-1H-pyrazole-5-carboxylate] | > 20 µM | > 20 µM | > 20 µM | 4.347 ± 0.007 | 163 to 164 °C |  |
| CCOC(=O)c1c(-c2ccc(OC)cc2)c(-c2ccc(OC)cc2)nn1CC(=O)c1ccc(F)cc1 [Compound 6h, Ethyl 1-[2-(4-fluorophenyl)-2-oxoethyl]-3,4-bis(4-methoxy-phenyl)-1H-pyrazole-5-carboxylate] | 2.07 ± 1.45 µM | 4.76 ± 2.33 µM | 4.76 ± 2.33 µM | 4.531 ± 0.006 | 104 to 105 °C | 0.062 |
| CCOC(=O)c1c(-c2ccccc2)c(-c2ccccc2)nn1CC(=O)c1ccc(OC)cc1 [Compound 6b, Ethyl 1-[2-(4-methoxyphenyl)-2-oxoethyl]-3,4-diphenyl-1H-pyrazole-5-carboxylate] | > 20 µM | > 20 µM | > 20 µM | 4.468 ± 0.006 | 144 to 145 °C |  |
| CCOC(=O)c1c(-c2ccc(F)cc2)c(-c2ccc(F)cc2)nn1CC(=O)c1ccccc1 [Compound 6k, Ethyl 3,4-bis(4-fluorophenyl)-1-(2-oxo-2-phenylethyl)-1H-pyrazole-5-carboxylate] | 3.39 ± 0.62 µM | 11.1 ± 2.62 µM | 7.81 ± 2.02 µM | 4.546 ± 0.005 | 103 to 104 °C |  |
| CCOC(=O)c1c(-c2ccc(OC)cc2)c(-c2ccc(OC)cc2)nn1CC(=O)c1ccc(OC)cc1 [Compound 6g, Ethyl 3,4-bis(4-methoxyphenyl)-1-[2-(4-methoxyphenyl)-2-oxoethyl]-1H-pyrazole-5-carboxylate] | > 20 µM | > 20 µM | > 20 µM | 4.531 ± 0.004 | 67 to 68 °C |  |
| CCOC(=O)c1c(-c2ccc(OC)cc2)c(-c2ccc(OC)cc2)nn1CC(=O)c1ccc(Cl)cc1 [Compound 6i, Ethyl 1-[2-(4-chlorophenyl)-2-oxoethyl]-3,4-bis(4-methoxy-phenyl)-1H-pyrazole-5-carboxylate] | > 20 µM | > 20 µM | > 20 µM | 4.784 ± 0.005 | 132 to 133 °C |  |
| CCOC(=O)c1c(-c2ccccc2)c(-c2ccccc2)nn1CC(=O)c1ccccc1 [Compound 6a, Ethyl 1-(2-oxo-2-phenylethyl)-3,4-diphenyl-1H-pyrazole-5-carboxylate] | 5.46 ± 0.393 µM | > 20 µM | > 20 µM | 4.381 ± 0.002 | 112 to 113 °C | 0.046 |
| CCOC(=O)c1c(-c2ccccc2)c(-c2ccccc2)nn1CC(=O)c1ccc(Cl)cc1 [Compound 6d, Ethyl 1-[2-(4-chlorophenyl)-2-oxoethyl]-3,4-diphenyl-1H-pyrazole-5-carboxylate] | 14.5 ± 3.92 µM | > 20 µM | > 20 µM | 4.711 ± 0.006 | 135 to 136 °C |  |
| COC(=O)c1c(-c2ccccc2)c(-c2ccccc2)nn1CC(=O)c1ccc(F)cc1 [Compound 7c, Methyl 1-[2-(4-fluorophenyl)-2-oxoethyl]-3,4-diphenyl-1H-pyrazole-5-carboxylate] | 2.7 ± 0.689 µM | 9.72 ± 3.71 µM |  | 4.327 ± 0.007 | 114 to 115 °C |  |
| CCOC(=O)c1c(-c2ccccc2)c(-c2ccccc2)nn1CC(=O)c1ccc(O)cc1 [Compound 6e, Ethyl 1-[2-(4-hydroxyphenyl)-2-oxoethyl]-3,4-diphenyl-1H-pyrazole-5-carboxylate] | > 20 µM | > 20 µM | > 20 µM | 3.803 ± 0.012 | 143 to 144 °C |  |
| CCOC(=O)c1c(-c2ccc(F)cc2)c(-c2ccc(F)cc2)nn1CC(=O)c1ccc(F)cc1 [Compound 6o, Ethyl 3,4-bis(4-fluorophenyl)-1-[2-(4-fluorophenyl)-2-oxoethyl]-1H-pyrazole-5-carboxylate] | 2.36 ± 0.039 µM | 6.67 ± 2.12 µM | 2.09 ± 0.032 µM | 4.598 ± 0.004 | 105 to 106 °C | 0.029 |
| CCOC(=O)c1c(-c2ccccc2)c(-c2ccc(F)cc2)nn1CC(=O)c1ccccc1 [Compound 6j, Ethyl 3-(4-fluorophenyl)-1-(2-oxo-2-phenylethyl)-4-phenyl-1H-pyrazole-5-carboxylate] | 3.75 ± 1.06 µM | 13.8 ± 0.861 µM | 9.24 ± 2.15 µM | 4.49 ± 0.006 | 135 to 136 °C |  |
| CCOC(=O)c1c(-c2ccc(OC)cc2)c(-c2ccc(OC)cc2)nn1CC(=O)c1ccccc1 [Compound 6f, Ethyl 3,4-bis(4-methoxyphenyl)-1-(2-oxo-2-phenylethyl)-1H-pyrazole-5-carboxylate] | 2.29 ± 0.218 µM | > 20 µM | > 20 µM | 4.462 ± 0.005 | 62 to 63 °C | 0.061 |
| CCOC(=O)c1c(-c2ccc(OC)cc2)c(-c2ccc(F)cc2)nn1CC(=O)c1ccccc1 [Compound 6l, Ethyl 3-(4-fluorophenyl)-4-(4-methoxyphenyl)-1-(2-oxo-2-phenylethyl)-1H-pyrazole-5-carboxylate] | 5.05 ± 1.16 µM | > 20 µM | 8.28 ± 2.34 µM | 4.499 ± 0.006 | 87 to 88 °C |  |
| CCOC(=O)c1c(-c2ccc(OC)cc2)c(-c2ccc(F)cc2)nn1CC(=O)c1ccc(F)cc1 [Compound 6n, Ethyl 3-(4-fluorophenyl)-1-[2-(4-fluorophenyl)-2-oxoethyl]-4-(4-methoxyphenyl)-1H-pyrazole-5-carboxylate] | 2.1 ± 0.198 µM | 6.78 ± 0.463 µM | 1.64 ± 0.022 µM | 4.564 ± 0.004 | 81 to 82 °C | 0.047 |
| COC(=O)c1c(-c2ccccc2)c(-c2ccccc2)nn1CC(=O)c1ccccc1 [Compound 7a, Methyl 1-(2-oxo-2-phenylethyl)-3,4-diphenyl-1H-pyrazole-5-carboxylate] | > 20 µM | > 20 µM | > 20 µM | 4.279 ± 0.005 | 138 to 139 °C |  |
| O=C(Cn1nc(-c2ccccc2)c(-c2ccccc2)c1C(=O)O)c1ccccc1 [6a′, 1-(2-Oxo-2-phenylethyl)-3,4-diphenyl-1H-pyrazole-5-carboxylic acid] |  |  |  |  | 209 to 210 °C |  |
